The term IC50 denotes the concentration that inhibits the measured activity by half.

The record followed here is publication PMC11249012 (Journal of Medicinal Chemistry, 2024).

For this experiment, the target named is T1, HDAC10 (Homo sapiens, UniProt Q969S8).
T1 sequence (Q969S8 1-669): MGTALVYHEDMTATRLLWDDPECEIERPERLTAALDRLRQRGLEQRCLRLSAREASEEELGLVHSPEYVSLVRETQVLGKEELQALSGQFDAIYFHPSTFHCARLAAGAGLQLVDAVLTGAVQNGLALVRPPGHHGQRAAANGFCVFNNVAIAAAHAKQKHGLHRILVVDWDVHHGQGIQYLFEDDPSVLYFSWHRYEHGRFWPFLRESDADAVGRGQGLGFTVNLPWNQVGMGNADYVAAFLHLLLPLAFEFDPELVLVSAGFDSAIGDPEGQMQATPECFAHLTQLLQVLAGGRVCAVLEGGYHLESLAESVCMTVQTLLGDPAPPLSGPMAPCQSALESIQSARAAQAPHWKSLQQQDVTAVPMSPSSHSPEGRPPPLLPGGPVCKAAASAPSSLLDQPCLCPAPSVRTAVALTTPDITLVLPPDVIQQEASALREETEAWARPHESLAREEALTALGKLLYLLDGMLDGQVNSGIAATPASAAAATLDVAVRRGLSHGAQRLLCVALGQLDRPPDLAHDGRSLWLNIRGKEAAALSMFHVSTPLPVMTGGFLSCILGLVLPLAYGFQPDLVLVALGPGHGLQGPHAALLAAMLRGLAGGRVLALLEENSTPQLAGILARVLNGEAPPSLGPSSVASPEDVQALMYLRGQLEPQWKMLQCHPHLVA
Nature of the experiment: Biochemical assay for HDAC inhibition, HDAC10. The note with it: read-out: IC50 HDAC10; Table 1, purified enzyme; unit inferred.

`Cn1cc(CNCC2CCN(c3ncc(C(=O)NO)cn3)CC2)c2ccccc21` [quisinostat]: the IC50 turned out to be 6.75 nM.
